According to US7772246B2 (Pfizer Inc., priority 2007, dated 2010):

Experiments:
b-Raf [1] = target: T1, b-Raf (Homo sapiens, UniProt P15056); assay: Raf biochemical assay (in vitro kinase assay, 32-P transfer from ATP to Mek1); conditions: full-length wild type b-Raf, Mek1 substrate; for Ki: 25 μM ATP; for inhibition at 1 µM: @ 1 μM compound, read-out: b-Raf % inhib @ 1 μM
T1 construct: Full-length wild type b-Raf is expressed in recombinant form and purified from bacterial or insect cells; made in house; host or cells: bacterial or insect cells
T1 sequence (P15056 whole entry): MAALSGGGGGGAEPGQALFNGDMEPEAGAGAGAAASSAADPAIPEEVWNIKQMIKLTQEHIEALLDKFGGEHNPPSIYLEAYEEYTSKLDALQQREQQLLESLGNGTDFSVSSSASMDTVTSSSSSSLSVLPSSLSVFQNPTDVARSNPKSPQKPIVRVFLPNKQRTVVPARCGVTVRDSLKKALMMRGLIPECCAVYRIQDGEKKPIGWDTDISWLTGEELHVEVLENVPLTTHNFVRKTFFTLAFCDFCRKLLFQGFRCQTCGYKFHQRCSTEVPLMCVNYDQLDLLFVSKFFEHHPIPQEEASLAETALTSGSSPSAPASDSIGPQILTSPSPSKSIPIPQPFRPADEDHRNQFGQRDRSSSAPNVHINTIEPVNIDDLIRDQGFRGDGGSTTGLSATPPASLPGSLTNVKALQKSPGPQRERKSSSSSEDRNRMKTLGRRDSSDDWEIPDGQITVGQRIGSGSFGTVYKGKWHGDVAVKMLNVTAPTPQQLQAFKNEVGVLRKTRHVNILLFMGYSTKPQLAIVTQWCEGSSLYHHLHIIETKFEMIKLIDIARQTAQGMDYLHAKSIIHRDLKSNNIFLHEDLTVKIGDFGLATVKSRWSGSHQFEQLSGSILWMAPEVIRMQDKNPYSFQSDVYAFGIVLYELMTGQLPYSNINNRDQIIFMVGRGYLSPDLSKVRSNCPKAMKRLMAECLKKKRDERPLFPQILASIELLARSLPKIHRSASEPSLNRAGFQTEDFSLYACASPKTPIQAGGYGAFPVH
Procedure: Compounds of the present invention were evaluated for potency against b-Raf using an in vitro kinase assay. Raf kinase activity is measured in vitro by determining transfer of radiolabeled 32-P phosphate from ATP to the specific Raf substrate Mek1. Full-length wild type b-Raf is expressed in recombinant form and purified from bacterial or insect cells. Recombinant Mek1 is purified from E. coli bacterial cells. In one assay format (designated G1), the full-length wild type Mek1 is used as the b-Raf substrate. In a second assay format (designated G2), the full-length K97R Mek1 mutant is used as the b-Raf substrate.
In vitro kinase assays are performed in solution containing the following; 50 mM Hepes (pH 7.4), 5 nM b-Raf, 0.8 μM Mek1, 10 mM MgCl2, 25 μM ATP, 0.002% (v/v) Tween-20, 5 μg/mL leupeptin, 1.2 mM DTT, 2% (v/v) DMSO, 0.2-1.0 μCi [γ-^32P]ATP per well.
The assays are performed in wells of a 96 well polypropylene round bottom plate, each well containing 43.5 μL assay mix and 1.5 μL inhibitor compound or DMSO vehicle. 15 μL of b-Raf mix is added and the plate is shaken on a plate shaker and preincubated for 10 minutes at ambient temperature. The reaction is started by addition of 15 μL ATP mix and shaking. The reaction is terminated after 40 minutes by addition of 25 μL 0.5 M EDTA (pH 7.4).
60 μL of the stopped reaction is transferred to a well of a 96-well nylon 66 Biodyne A membrane Silent Screen filter plate (Nalge/Nunc: 256081). The wells are filtered and washed five times with 0.85% phosphoric acid. The filter is placed in a tray with about 50 mL 0.85% phosphoric acid and gently rotated for 10 minutes on an orbital shaker. The procedure is repeated once with fresh 0.85% phosphoric acid. Five samples of 0.5 μL of ATP mix are also spotted onto filter paper for calculation of specific activity. The filters are air dried for one hour and sandwiched between cellophane wrap on an Amersham Biosciences Storage Phosphor Screen and developed at least over night. The image is read using a Molecular Dynamics Storm 840 phosphoimager. Volumes of spots are calculated using ImageQuant5.1.
Raf kinase activity is calculated from the specific activity of [32-P] ATP, 32-P incorporation into Mek1, and the concentration of b-Raf.

b-Raf [2] = target: T2, b-Raf (Homo sapiens, UniProt P15056, V600E); assay: Raf cellular assay (phospho-Mek1/2 ELISA in A2058 cells); format: cell-based; conditions: Table 2; human melanoma A2058 cells (b-Raf mutation), Mek1/2 Ser217/221 phosphorylation, 1 hour incubation; read-out: pMEK IC50
T2 construct: endogenous in cells; host or cells: A2058 human melanoma cells
T2 sequence (P15056 whole entry V600E): as the sequence (P15056 whole entry) above, with V600E counted along it
Method in brief: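 A2058 melanoma cells (B-Raf mutant), seeded overnight in 10% FBS DMEM, were exposed to compounds (11-point 1:3 series, duplicate) for 1 h at 37 °C. Lysates were captured on anti-Mek1-coated plates and Mek1/2 Ser217/221 phosphorylation was read by anti-phospho-Mek1/2 ELISA, HRP/TMB, 450 nm.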

Row | Compound | Ki (b-Raf [1]) | IC50 (b-Raf [2]) | inhibition at 1 µM (b-Raf [1])
1 | Cc1nc2ncc(-c3nn(C(C)C)cc3-c3ccnc(NC[C@H](C)O)n3)cn2c1C [Example B-9, (2S)-1-(4-(3-(2,3-dimethylimidazo[1,2-a]pyrimidin-6-yl)-1-isopropyl-1H-pyrazol-4-yl)pyrimidin-2-ylamino)propan-2-ol] | 2 nM | 9260 nM | 
2 | CC(C)n1cc(-c2ccnc(NC[C@H](C)O)n2)c(-c2cnc3ccn(C)c3n2)n1 [Example B-10] | 5 nM | 5960 nM | 
3 | CC(C)n1cc(-c2ccnc(NC[C@H](C)O)n2)c(-c2cnc3[nH]cc(Cl)c3c2)n1 [Example B-11, (2S)-1-(4-(3-(3-chloro-1H-pyrrolo[2,3-b]pyridin-5-yl)-1-isopropyl-1H-pyrazol-4-yl)pyrimidin-2-ylamino)propan-2-ol] | < 0.1 nM | 7 nM | 
4 | CC(C)n1cc(-c2ccnc(NC[C@H](C)O)n2)c(-c2cnc3c(c2)CCN3)n1 [Example B-12, (2S)-1-(4-(3-(2,3-dihydro-1H-pyrrolo[2,3-b]pyridin-5-yl)-1-isopropyl-1H-pyrazol-4-yl)pyrimidin-2-ylamino)propan-2-ol] | 1.6 nM | 450 nM | 
5 | C[C@H](O)CNc1nccc(-c2cn(C)nc2-c2cnc3[nH]ccc3c2)n1 [Example B-13, (2S)-1-(4-(1-methyl-3-(1H-pyrrolo[2,3-b]pyridin-5-yl)-1H-pyrazol-4-yl)pyrimidin-2-ylamino)propan-2-ol] | 22.7 nM | 6270 nM | 
6 | C[C@H](O)CNc1nccc(-c2cn(CC(F)F)nc2-c2cnc3[nH]ccc3c2)n1 [Example B-14, (2S)-1-(4-(1-(2,2-difluoroethyl)-3-(1H-pyrrolo[2,3-b]pyridin-5-yl)-1H-pyrazol-4-yl)pyrimidin-2-ylamino)propan-2-ol] | 0.7 nM | 510 nM | 100%
7 | C[C@H](O)CNc1nccc(-c2cn(CC3(C)COC3)nc2-c2cnc3[nH]ccc3c2)n1 [Example B-15, (2S)-1-(4-(1-((3-methyloxetan-3-yl)methyl)-3-(1H-pyrrolo[2,3-b]pyridin-5-yl)-1H-pyrazol-4-yl)pyrimidin-2-ylamino)propan-2-ol] | 6.2 nM | 3250 nM | 

Further lines, results first:

Row | Ki (b-Raf [1]) | IC50 (b-Raf [2]) | inhibition at 1 µM (b-Raf [1]) | Compound
8 | 3.9 nM | 483 nM |  | C[C@H](O)CNc1nccc(-c2cn(CC#N)nc2-c2cnc3[nH]ccc3c2)n1 [Example C-1, [4-[2-((S)-2-Hydroxy-propylamino)-pyrimidin-4-yl]-3-(1H-pyrrolo[2,3-b]pyridin-5-yl)-pyrazol-1-yl]-acetonitrile]
9 | 3.3 nM | 1980 nM |  | CC(C)n1cc(-c2ccnc(NC[C@H](C)O)n2)c(-c2cnc3[nH]ncc3c2)n1 [Example D-1, (2S)-1-(4-(1-isopropyl-3-(1H-pyrazolo[3,4-b]pyridin-5-yl)-1H-pyrazol-4-yl)pyrimidin-2-ylamino)propan-2-ol]
10 | 0.3 nM | 109 nM |  | Cc1n[nH]c2ncc(-c3nn(C(C)C)cc3-c3ccnc(NC[C@H](C)O)n3)cc12 [Example D-2, (2S)-1-(4-(1-isopropyl-3-(3-methyl-1H-pyrazolo[3,4-b]pyridin-5-yl)-1H-pyrazol-4-yl)pyrimidin-2-ylamino)propan-2-ol]
11 | 8.3 nM | 1810 nM | 93% | CC(C)n1cc(-c2ccnc(NCc3ccccn3)n2)c(-c2cnc3[nH]ccc3c2)n1 [Example D-3, 4-(1-isopropyl-3-(1H-pyrrolo[2,3-b]pyridin-5-yl)-1H-pyrazol-4-yl)-N-(pyridin-2-ylmethyl)pyrimidin-2-amine]
12 | < 0.1 nM | 149 nM | 100% | CC(C)n1cc(-c2ccnc(NCCn3cccn3)n2)c(-c2cnc3[nH]ccc3c2)n1 [Example D-4, 4-[1-isopropyl-3-(1H-pyrrolo[2,3-b]pyridin-5-yl)-1H-pyrazol-4-yl]-N-[2-(1H-pyrazol-1-yl)ethyl]pyrimidin-2-amine]
13 | 0.5 nM | 182 nM | 100% | CC(C)n1cc(-c2ccnc(NCCF)n2)c(-c2cnc3[nH]ccc3c2)n1 [Example D-5, N-(2-fluoroethyl)-4-[1-isopropyl-3-(1H-pyrrolo[2,3-b]pyridin-5-yl)-1H-pyrazol-4-yl]pyrimidin-2-amine]
14 | 1.36 nM | 369 nM | 101% | CC(C)n1cc(-c2ccnc(NCCO)n2)c(-c2cnc3[nH]ccc3c2)n1 [Example D-6, 2-({4-[1-isopropyl-3-(1H-pyrrolo[2,3-b]pyridin-5-yl)-1H-pyrazol-4-yl]pyrimidin-2-yl}amino)ethanol]
15 | 0.5 nM | 386 nM | 99% | CC(C)n1cc(-c2ccnc(NCCc3cn[nH]c3)n2)c(-c2cnc3[nH]ccc3c2)n1 [Example D-7, 4-[1-isopropyl-3-(1H-pyrrolo[2,3-b]pyridin-5-yl)-1H-pyrazol-4-yl]-N-[2-(1H-pyrazol-4-yl)ethyl]pyrimidin-2-amine]
16 | 0.7 nM | 542 nM | 100% | CC(C)n1cc(-c2ccnc(NCCn3ccccc3=O)n2)c(-c2cnc3[nH]ccc3c2)n1 [Example D-8, 1-[2-({4-[1-isopropyl-3-(1H-pyrrolo[2,3-b]pyridin-5-yl)-1H-pyrazol-4-yl]pyrimidin-2-yl}amino)ethyl]pyridin-2(1H)-one]
17 | 2 nM | 923 nM | 100% | CCn1cc(CNc2nccc(-c3cn(C(C)C)nc3-c3cnc4[nH]ccc4c3)n2)cn1 [Example D-10, N-[(1-ethyl-1H-pyrazol-4-yl)methyl]-4-[1-isopropyl-3-(1H-pyrrolo[2,3-b]pyridin-5-yl)-1H-pyrazol-4-yl]pyrimidin-2-amine]
18 | 0.8 nM | 1320 nM | 100% | Cc1nc(CNc2nccc(-c3cn(C(C)C)nc3-c3cnc4[nH]ccc4c3)n2)c(C)o1 [Example D-11, N-[(2,5-dimethyl-1,3-oxazol-4-yl)methyl]-4-[1-isopropyl-3-(1H-pyrrolo[2,3-b]pyridin-5-yl)-1H-pyrazol-4-yl]pyrimidin-2-amine]
19 | 1.4 nM | 1520 nM | 99% | CC(C)n1cc(-c2ccnc(NCC3CCOC3)n2)c(-c2cnc3[nH]ccc3c2)n1 [Example D-12, 4-[1-isopropyl-3-(1H-pyrrolo[2,3-b]pyridin-5-yl)-1H-pyrazol-4-yl]-N-(tetrahydrofuran-3-ylmethyl)pyrimidin-2-amine]
20 | 0.7 nM | 2990 nM | 100% | COCCNc1nccc(-c2cn(C(C)C)nc2-c2cnc3[nH]ccc3c2)n1 [Example D-13, 4-[1-isopropyl-3-(1H-pyrrolo[2,3-b]pyridin-5-yl)-1H-pyrazol-4-yl]-N-(2-methoxyethyl)-pyrimidin-2-amine]
21 | 4.8 nM | 3140 nM | 99% | CCN1CC(CNc2nccc(-c3cn(C(C)C)nc3-c3cnc4[nH]ccc4c3)n2)CC1=O [Example D-14, 1-ethyl-4-[({4-[1-isopropyl-3-(1H-pyrrolo[2,3-b]pyridin-5-yl)-1H-pyrazol-4-yl]pyrimidin-2-yl}amino)methyl]-pyrrolidin-2-one]
22 | 1.5 nM | 223 nM |  | C[C@H](O)CNc1nccc(-c2cn(C)nc2-c2cnc3[nH]cc(Cl)c3c2)n1 [Example E-1, (2S)-1-(4-(3-(3-chloro-1H-pyrrolo[2,3-b]pyridin-5-yl)-1-methyl-1H-pyrazol-4-yl)pyrimidin-2-ylamino)propan-2-ol]
